From patent US10329294B2, “Pyrazolopyrimidine inhibitors of IRAK4 activity” (MERCK SHARP & DOHME CORP., priority 2015, dated 2019) come the findings set out here.

The assay has as its target IRAK4 (Homo sapiens (Human), UniProt Q9NWZ3). Briefly: IRAK4 Kinase Assay. Type of assay: biochemical. Conditions: IMAP fluorescence polarization, 0.5 nM GST tagged IRAK4, 100 μM ATP, 30 minutes at 25° C.; read-out: IRAK4 IC50.

Where a name gives a salt, the structure may show the parent alone.

IRAK4, sequence (Q9NWZ3 whole entry): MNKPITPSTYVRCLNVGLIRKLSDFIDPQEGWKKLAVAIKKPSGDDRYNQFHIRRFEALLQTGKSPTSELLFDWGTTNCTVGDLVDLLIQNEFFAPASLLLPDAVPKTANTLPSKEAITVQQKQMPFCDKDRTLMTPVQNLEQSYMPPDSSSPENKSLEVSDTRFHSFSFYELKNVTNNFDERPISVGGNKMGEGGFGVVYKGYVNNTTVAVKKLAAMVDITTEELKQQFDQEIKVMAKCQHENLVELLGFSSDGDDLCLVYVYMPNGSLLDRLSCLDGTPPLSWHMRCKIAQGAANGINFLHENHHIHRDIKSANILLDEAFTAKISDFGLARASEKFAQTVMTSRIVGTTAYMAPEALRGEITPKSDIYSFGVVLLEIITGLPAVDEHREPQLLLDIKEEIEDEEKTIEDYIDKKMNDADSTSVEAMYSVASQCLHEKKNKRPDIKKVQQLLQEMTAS

The IC50 is the concentration that gives 50% inhibition. Take `Cc1cnc(-c2nn(C)cc2NC(=O)c2cnn3ccc(N[C@@H]4CCCC[C@@H]4N)nc23)o1` [Example 285, 5-{[(1R,2S)-2-aminocyclohexyl]amino}-N-[1-methyl-3-(5-methyl-1,3-oxazol-2-yl)-1H-pyrazol-4-yl]pyrazolo[1,5-a]pyrimidine-3-carboxamide trifluoroacetate]: the IC50 was 0.024 µM.

For `Cn1cc(NC(=O)c2cnn3ccc(N4CCC(F)(F)[C@@H](N)C4)nc23)c(C(F)(F)F)n1` (single isomer, unassigned) [Example 188, 5-[(4R)- or (4S)-(3-amino-4,4-difluoropiperidin-1-yl)-N-[1-methyl-3-(trifluoromethyl)-1H-pyrazol-4-yl]pyrazolo[1,5-a]pyrimidine-3-carboxamide trifluoroacetate], the IC50 was determined as 0.06 µM.

As for `N#Cc1sccc1NC(=O)c1cnn2ccc(N3CCCNCC3)nc12` [Example 111, N-(2-cyanothiophen-3-yl)-5-(1,4-diazepan-1-yl)pyrazolo[1,5-a]pyrimidine-3-carboxamide trifluoroacetate], the IC50 turned out to be 0.464 µM.

In the case of `Cn1cc(NC(=O)c2cnn3ccc(N4CCNCC4CC(F)(F)F)nc23)c(C(F)(F)F)n1` (stereo not shown) [Example 41, N-[1-methyl-3-(trifluoromethyl)-1H-pyrazol-4-yl]-5-[2-(2,2,2-trifluoroethyl)piperazin-1-yl]pyrazolo[1,5-a]pyrimidine-3-carboxamide trifluoroacetate], the IC50 came to 0.106 µM.

`Cn1cc(NC(=O)c2cnn3ccc(N[C@@H]4CCCCNC4)nc23)c(C(F)F)n1` (single isomer, unassigned) [Example 162, 5-[(3S)- or (3R)-azepan-3-ylamino]-N-[3-(difluoromethyl)-1-methyl-1H-pyrazol-4-yl]pyrazolo[1,5-a]pyrimidine-3-carboxamide trifluoroacetate]: the IC50 was found to be 0.0002 µM.

For `O=C(Nc1cscc1Cl)c1cnn2ccc(N3C[C@H]4CC[C@@H]3CN4)nc12` (single isomer, unassigned) [Example 171, N-(4-chlorothiophen-3-yl)-5-[(1S,4S)- or (1R,4R)-2,5-diazabicyclo[2.2.2]oct-2-yl]pyrazolo[1,5-a]pyrimidine-3-carboxamide trifluoroacetate], the IC50 turned out to be 0.383 µM.

In the case of `CC(C)(C)n1cc(NC(=O)c2cnn3ccc(N4CCNCC5(CC5)C4)nc23)c(C(F)(F)F)n1` [Example 47, N-[1-tert-butyl-3-(trifluoromethyl)-1H-pyrazol-4-yl]-5-(5,8-diazaspiro[2.6]non-5-yl)pyrazolo[1,5-a]pyrimidine-3-carboxamide trifluoroacetate], the IC50 amounted to 0.049 µM.

With `Cn1cc(NC(=O)c2cnn3ccc(N4[C@@H]5CC[C@H]4[C@@H]4CC[C@H]5N4)nc23)c(C(F)(F)F)n1` [Example 92, 5-[9,10-diazatricyclo[4.2.1.1~2,5~]dec-9-yl]-N-]1-methyl-3-(trifluoromethyl)-1H-pyrazol-4-yl]pyrazolo[1,5-a]pyrimidine-3-carboxamide trifluoroacetate], the IC50 amounted to 0.115 µM.

With `O=C(Nc1cn(CC(F)F)nc1C(F)(F)F)c1cnn2ccc(N3CCNCC4(CC4)C3)nc12` [Example 64, 5-(5,8-diazaspiro[2.6]non-5-yl)-N-[1-(2,2-difluoroethyl)-3-(trifluoromethyl)-1H-pyrazol-4-yl]pyrazolo[1,5-a]pyrimidine-3-carboxamide trifluoroacetate], the half-maximal inhibitory concentration (IC50) was 0.018 µM.

As to `Cn1cc(NC(=O)c2cnn3ccc(N4CCN(CC5CC5)CC4)nc23)c(C(F)(F)F)n1` [Example 6, 5-[4-(cyclopropylmethyl)piperazin-1-yl]-N-[1-methyl-3-(trifluoromethyl)-1H-pyrazol-4-yl]pyrazolo[1,5-a]pyrimidine-3-carboxamide], the IC50 stood at 0.681 µM.

For `Cn1cc(NC(=O)c2cnn3ccc(N4CCCNCC4)nc23)c(Cl)n1` [Example 148, N-(3-chloro-1-methyl-1H-pyrazol-4-yl)-5-(1,4-diazepan-1-yl)pyrazolo[1,5-a]pyrimidine-3-carboxamide trifluoroacetate], the IC50 stood at 0.113 µM.

As to `Cn1cc(NC(=O)c2cnn3ccc(N4CCC[C@H](O)C4)nc23)c(C(F)(F)F)n1` [Example 22, 5-[(3S)-3-hydroxypiperidin-1-yl]-N-[1-methyl-3-(trifluoromethyl)-1H-pyrazol-4-yl]pyrazolo[1,5-a]pyrimidine-3-carboxamide], the IC50 worked out at 0.002 µM.

In the case of `Cn1cc(NC(=O)c2cnn3ccc(N[C@H]4C(O)CCC[C@H]4N)nc23)c(C(F)(F)F)n1` (single isomer, unassigned) [Example 202, 5-{[(1R,2R)- or (1S,2S)-2-amino-6-hydroxycyclohexyl]amino}-N-[1-methyl-3-(trifluoromethyl)-1H-pyrazol-4-yl]pyrazolo[1,5-a]pyrimidine-3-carboxamide], the IC50 is 0.004 µM.

Turning to `Cn1cc(NC(=O)c2cnn3ccc(N4CCC(F)(F)[C@H](N)C4)nc23)c(C(F)F)n1` (single isomer, unassigned) [Example 193, 5-[(4R)- or (4S)-(3-amino-4,4-difluoropiperidin-1-yl)-N-[3-(difluoromethyl)-1-methyl-1H-pyrazol-4-yl]pyrazolo[1,5-a]pyrimidine-3-carboxamide trifluoroacetate], the IC50 came to 0.002 µM.

Take `N#Cc1cscc1NC(=O)c1cnn2ccc(N3CCCNCC3)nc12` [Example 141, N-(4-cyanothiophen-3-yl)-5-(1,4-diazepan-1-yl)pyrazolo[1,5-a]pyrimidine-3-carboxamide trifluoroacetate]: the IC50 was found to be 0.359 µM.

For `Cn1cc(NC(=O)c2cnn3ccc(N[C@@H]4CNC[C@@H](F)C4)nc23)c(C(F)(F)F)n1` [Example 255, 5-{[(3S,5S)-5-fluoropiperidin-3-yl]amino}-N-[1-methyl-3-(trifluoromethyl)-1H-pyrazol-4-yl]pyrazolo[1,5-a]pyrimidine-3-carboxamide], the IC50 was found to be 0.036 µM.

For `N[C@@H]1CCCC[C@@H]1Nc1ccn2ncc(C(=O)Nc3cnn(-c4cccnc4)c3)c2n1` [Example 278, 5-{[(1S,2R)-2-aminocyclohexyl]amino}-N-(1-pyridin-3-yl-1H-pyrazol-4-yl)pyrazolo[1,5-a]pyrimidine-3-carboxamide trifluoroacetate], the IC50 came out at 0.009 µM.

For the compound `Cn1cc(NC(=O)c2cnn3ccc(N[C@H]4CNCC(F)(F)C4)nc23)c(C(F)F)n1` (single isomer, unassigned) [Example 235, N-[3-(difluoromethyl)-1-methyl-1H-pyrazol-4-yl]-5-{[(3S)- or (3R)-5,5-difluoropiperidin-3-yl]amino}pyrazolo[1,5-a]pyrimidine-3-carboxamide], the IC50 stood at 0.0007 µM.

`N[C@@H]1[C@H](Nc2ccn3ncc(C(=O)Nc4cscc4C(F)F)c3n2)CCCC1(F)F` [Example 121, 5-{[(1R,2R)-2-amino-3,3-difluorocyclohexyl]amino}-N-[4-(difluoromethyl)thiophen-3-yl]pyrazolo[1,5-a]pyrimidine-3-carboxamide trifluoroacetate]: the IC50 was 0.124 µM.

As to `N#Cc1sccc1NC(=O)c1cnn2ccc(N[C@@H]3CCCC(F)(F)[C@@H]3N)nc12` [Example 133, 5-{[(1R,2R)-2-amino-3,3-difluorocyclohexyl]amino}-N-(2-cyanothiophen-3-yl)pyrazolo[1,5-a]pyrimidine-3-carboxamide trifluoroacetate], the IC50 was 0.095 µM.

On to `Cn1cc(NC(=O)c2cnn3ccc(N[C@@H]4CCCC[C@@H]4O)nc23)c(Cl)n1` [Example 186, N-(3-chloro-1-methyl-1H-pyrazol-4-yl)-5-{[(1R,2S)-2-hydroxycyclohexyl]amino} pyrazolo[1,5-a]pyrimidine-3-carboxamide], for which the IC50 was found to be 0.024 µM.

`N[C@@H]1[C@H](Nc2ccn3ncc(C(=O)Nc4cscc4Br)c3n2)CCCC1(F)F` [Example 122, 5-{[(1R,2R)-2-amino-3,3-difluorocyclohexyl]amino}-N-(4-bromothiophen-3-yl)pyrazolo[1,5-a]pyrimidine-3-carboxamide trifluoroacetate]: the IC50 was 1.15 µM.

With `Cn1cc(NC(=O)c2cnn3ccc(N[C@@H]4CCCNC4)nc23)c(C(F)F)n1` [Example 91, N-[3-(difluoromethyl)-1-methyl-1H-pyrazol-4-yl]-5-[(3R)-piperidin-3-ylamino]pyrazolo[1,5-a]pyrimidine-3-carboxamide trifluoroacetate], the IC50 stood at 0.0005 µM.

`Cn1cc(NC(=O)c2cnn3ccc(N4CCNCC5(CC5)C4)nc23)c(C(F)F)n1` [Example 86, 5-(5,8-diazaspiro[2.6]non-5-yl)-N-[3-(difluoromethyl)-1-methyl-1H-pyrazol-4-yl]pyrazolo[1,5-a]pyrimidine-3-carboxamide trifluoroacetate]: the IC50 turned out to be 0.002 µM.

Regarding `Cn1cc(NC(=O)c2cnn3ccc(N4CC5CNCC4C5)nc23)c(C(F)F)n1` (stereo not shown) [Example 238, 5-[3,6-diazabicyclo[3.2.1]oct-6-yl]-N-[3-(difluoromethyl)-1-methyl-1H-pyrazol-4-yl]pyrazolo[1,5-a]pyrimidine-3-carboxamide], the half-maximal inhibitory concentration (IC50) is 0.004 µM.

Take `Cn1cc(NC(=O)c2cnn3ccc(N4CCNCC5(CC5)C4)nc23)c(C(F)(F)F)n1` [Example 14, 5-(5,8-diazaspiro[2.6]non-5-yl)-N-[1-methyl-3-(trifluoromethyl)-1H-pyrazol-4-yl]pyrazolo[1,5-15a]pyrimidine-3-carboxamide trifluoroacetate]: the IC50 is 0.016 µM.

In the case of `Cn1cc(NC(=O)c2cnn3ccc(NCCN4CCOCC4)nc23)c(C(F)(F)F)n1` [Example 290, N-[1-methyl-3-(trifluoromethyl)-1H-pyrazol-4-yl]-5-[(2-morpholin-4-ylethyl)amino]pyrazolo[1,5-a]pyrimidine-3-carboxamide trifluoroacetate], the IC50 came to 0.977 µM.

On to `Cn1cc(NC(=O)c2cnn3ccc(N[C@@H]4CCCC(F)(F)[C@@H]4N)nc23)c(Br)n1` [Example 139, 5-{[(1R,2R)-2-amino-3,3-difluorocyclohexyl]amino}-N-(3-bromo-1-methyl-1H-pyrazol-4-yl)pyrazolo[1,5-a]pyrimidine-3-carboxamide trifluoroacetate], for which the IC50 was 0.126 µM.
